Data reported in patent US11497212B2, “Substituted thiophenyl uracils, salts thereof and the use thereof as herbicidal agents” (Syngenta Crop Protection AG, priority 2017, dated 2022).

Columns and labels:
Type in all cases: in vivo
Abutilon theophrasti [1] = assay: Herbicidal action post-emergence (greenhouse pot trial); conditions: application rate 80 g/ha, scored visually after about 3 weeks vs untreated controls
Outline: (§1)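 Sowing in sandy loam, then 2–3 weeks of controlled greenhouse growth. Next, one-leaf-stage plants received a foliar spray of the WP- or EC-formulated compound with 0.5% additive (600 L/ha water, application rate of 80 g/ha or below). Finally, after about 3 weeks under optimal conditions, effect was judged by eye against controls.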

Alopecurus myosuroides [2] = assay: as above; conditions: application rate 80 g/ha, scored visually after about 3 weeks vs untreated controls
Outline: as §1

Amaranthus retroflexus [3] = assay: as above; conditions: application rate 80 g/ha, scored visually after about 3 weeks vs untreated controls
Outline: as §1

Echinochloa crus-galli [4] = assay: as above; conditions: application rate 80 g/ha, scored visually after about 3 weeks vs untreated controls
Outline: as §1

Lolium rigidum [5] = assay: as above; conditions: application rate 80 g/ha, scored visually after about 3 weeks vs untreated controls
Outline: as §1

Matricaria inodora [6] = assay: as above; conditions: application rate 80 g/ha, scored visually after about 3 weeks vs untreated controls
Outline: as §1

Pharbitis purpurea [7] = assay: as above; conditions: application rate 80 g/ha
Outline: as §1

Polygonum convolvulus = assay: as above; conditions: application rate 80 g/ha, scored visually after about 3 weeks vs untreated controls
Outline: as §1

Setaria viridis [8] = assay: as above; conditions: application rate 80 g/ha, scored visually after about 3 weeks vs untreated controls
Outline: as §1

Stellaria media [9] = assay: as above; conditions: application rate 80 g/ha, scored visually after about 3 weeks vs untreated controls
Outline: as §1

Veronica persica [10] = assay: as above; conditions: application rate 80 g/ha
Outline: as §1

Viola tricolor [11] = assay: as above; conditions: application rate 80 g/ha
Outline: as §1

Oryza sativa = assay: Crop compatibility post-emergence (greenhouse pot trial)
Outline: (§2)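 Greenhouse pot trial: sandy loam, sown seeds, treatment at one-leaf stage 2–3 wk after sowing. Spray: aqueous WP/EC preparation, 0.5% additive, 600 L/ha. Readout: visual % effect after ~3 wk relative to untreated plants.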

Triticum aestivum = assay: as above
Outline: as §2

Abutilon theophrasti [12] = assay: Herbicidal action pre-emergence (greenhouse pot trial); conditions: application rate 320 g/ha, scored after about 3 weeks
Outline: (§3)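 Application rates of 320 g/ha or lower were used, with compounds delivered onto covering soil before weed emergence. After roughly three weeks in the greenhouse, damage was judged by eye as a percentage versus untreated plants.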

Alopecurus myosuroides [13] = assay: as above; conditions: application rate 320 g/ha, scored after about 3 weeks
Outline: as §3

Amaranthus retroflexus [14] = assay: as above; conditions: application rate 320 g/ha, scored after about 3 weeks
Outline: as §3

Avena fatua = assay: as above; conditions: application rate 320 g/ha
Outline: as §3

Cyperus esculentus = assay: as above; conditions: application rate 320 g/ha
Outline: as §3

Echinochloa crus-galli [15] = assay: as above; conditions: application rate 320 g/ha, scored after about 3 weeks
Outline: as §3

Hordeum murinum [16] = assay: as above; conditions: application rate 320 g/ha
Outline: as §3

Lolium rigidum [17] = assay: as above; conditions: application rate 320 g/ha
Outline: as §3

Matricaria inodora [18] = assay: as above; conditions: application rate 320 g/ha, scored after about 3 weeks
Outline: as §3

Pharbitis purpurea [19] = assay: as above; conditions: application rate 320 g/ha
Outline: as §3

Setaria viridis [20] = assay: as above; conditions: application rate 320 g/ha, scored after about 3 weeks
Outline: as §3

Stellaria media [21] = assay: as above; conditions: application rate 320 g/ha, scored after about 3 weeks
Outline: as §3

Veronica persica [22] = assay: as above; conditions: application rate 320 g/ha
Outline: as §3

Viola tricolor [23] = assay: as above; conditions: application rate 320 g/ha, scored after about 3 weeks
Outline: as §3

Zea mays [24] = assay: Crop compatibility post-emergence (greenhouse pot trial); conditions: application rate 20 g/ha
Outline: as §2

Zea mays [25] = assay: Crop compatibility pre-emergence (greenhouse pot trial); conditions: effect vs untreated controls
Outline: (§4)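 Pre-emergence: seeds in pots under soil cover → WP/EC formulations applied to soil surface in water (600 L/ha) plus 0.5% additive → greenhouse, good growth conditions → ~3 wk → visual % damage vs untreated control.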

Digitaria sanguinalis [26] = assay: Herbicidal action post-emergence (greenhouse pot trial); conditions: application rate 80 g/ha
Outline: as §1

Hordeum murinum [27] = assay: as above; conditions: application rate 80 g/ha, scored visually after about 3 weeks vs untreated controls
Outline: as §1

Digitaria sanguinalis [28] = assay: Herbicidal action pre-emergence (greenhouse pot trial); conditions: application rate 80 g/ha
Outline: as §3

Glycine max = assay: Crop compatibility pre-emergence (greenhouse pot trial); conditions: application rate 80 g/ha, effect vs untreated controls
Outline: as §4

| SMILES | Abutilon theophrasti (Efficacy in %) (Abutilon theophrasti [1]) | Alopecurus myosuroides (Efficacy in %) (Alopecurus myosuroides [2]) | Amaranthus retroflexus (Efficacy in %) (Amaranthus retroflexus [3]) | Echinochloa crus-galli (Efficacy in %) (Echinochloa crus-galli [4]) | Lolium rigidum (Efficacy in %) (Lolium rigidum [5]) | Matricaria inodora (Efficacy in %) (Matricaria inodora [6]) | Pharbitis purpurea (Efficacy in %) (Pharbitis purpurea [7]) | Polygonum convolvulus (Efficacy in %) (Polygonum convolvulus) | Setaria viridis (Efficacy in %) (Setaria viridis [8]) | Stellaria media (Efficacy in %) (Stellaria media [9]) | Veronica persica (Efficacy in %) (Veronica persica [10]) | Viola tricolor (Efficacy in %) (Viola tricolor [11]) | Abutilon theophrasti (Efficacy in %) (Abutilon theophrasti [12]) | Alopecurus myosuroides (Efficacy in %) (Alopecurus myosuroides [13]) | Amaranthus retroflexus (Efficacy in %) (Amaranthus retroflexus [14]) | Echinochloa crus-galli (Efficacy in %) (Echinochloa crus-galli [15]) | Hordeum murinum (Efficacy in %) (Hordeum murinum [16]) | Lolium rigidum (Efficacy in %) (Lolium rigidum [17]) | Matricaria inodora (Efficacy in %) (Matricaria inodora [18]) | Pharbitis purpurea (Efficacy in %) (Pharbitis purpurea [19]) | also measured |
| --- | --- | --- | --- | --- | --- | --- | --- | --- | --- | --- | --- | --- | --- | --- | --- | --- | --- | --- | --- | --- | --- |
| CC(Sc1cc(-n2c(=O)cc(C(F)(F)F)n(C)c2=O)c(F)cc1Cl)C(=O)NCC1CCCS1(=O)=O (centres unmarked) [I.1-275] | 100% | 90% | 100% | 90% | 80% | 100% | 100% | 100% | 100% | 100% | 100% | 100% | 100% | 100% | 100% | 100% | 90% | 90% | 100% | 100% | Oryza sativa (Efficacy in %) (Oryza sativa; application rate 20 g/ha): 20%; Triticum aestivum (Efficacy in %) (Triticum aestivum; application rate 20 g/ha): 20%; Avena fatua (Efficacy in %) (Avena fatua): 100%; Cyperus esculentus (Efficacy in %) (Cyperus esculentus): 80%; Setaria viridis (Efficacy in %) (Setaria viridis [20]): 100%; Stellaria media (Efficacy in %) (Stellaria media [21]): 100%; Veronica persica (Efficacy in %) (Veronica persica [22]): 100%; Viola tricolor (Efficacy in %) (Viola tricolor [23]): 100% |
| COCCOC(=O)C(C)Sc1cc(-n2c(=O)cc(C(F)(F)F)n(C)c2=O)c(F)cc1Cl (centres unmarked) [I.1-1] | 100% | 80% | 100% | 100% | 90% | 100% | 100% | 100% | 100% | 100% | 100% | 100% | 100% | 80% | 100% | 100% | 90% | 80% | 100% | 100% | Oryza sativa (Efficacy in %) (Oryza sativa; application rate 5 g/ha): 20%; Triticum aestivum (Efficacy in %) (Triticum aestivum; application rate 5 g/ha): 20%; Zea mays (Efficacy in %) (Zea mays [24]): 20%; Avena fatua (Efficacy in %) (Avena fatua): 90%; Cyperus esculentus (Efficacy in %) (Cyperus esculentus): 100%; Setaria viridis (Efficacy in %) (Setaria viridis [20]): 100%; Stellaria media (Efficacy in %) (Stellaria media [21]): 100%; Veronica persica (Efficacy in %) (Veronica persica [22]): 100%; Viola tricolor (Efficacy in %) (Viola tricolor [23]): 100%; Zea mays (Efficacy in %) (Zea mays [25]; application rate 20 g/ha): 20% |
| CCOCCCOC(=O)C(C)Sc1cc(-n2c(=O)cc(C(F)(F)F)n(C)c2=O)c(F)cc1Cl (centres unmarked) [I.1-27] | 100% | 90% | 100% | 100% | 80% | 100% | 100% | 100% | 100% | 100% | 100% | 100% | 100% | 80% | 100% | 100% | 80% | 90% | 100% | 100% | Digitaria sanguinalis (Efficacy in %) (Digitaria sanguinalis [26]): 100%; Hordeum murinum (Efficacy in %) (Hordeum murinum [27]): 80%; Oryza sativa (Efficacy in %) (Oryza sativa; application rate 5 g/ha): 10%; Triticum aestivum (Efficacy in %) (Triticum aestivum; application rate 5 g/ha): 10%; Digitaria sanguinalis (Efficacy in %) (Digitaria sanguinalis [28]): 100%; Setaria viridis (Efficacy in %) (Setaria viridis [20]): 100%; Stellaria media (Efficacy in %) (Stellaria media [21]): 100%; Veronica persica (Efficacy in %) (Veronica persica [22]): 100%; Viola tricolor (Efficacy in %) (Viola tricolor [23]): 100%; Glycine max (Efficacy in %) (Glycine max): 20%; Zea mays (Efficacy in %) (Zea mays [25]; application rate 80 g/ha): 0% |
